Experimental data reported in patent US11078216B2, “Bisaryl amides as NRF2 activators” (GLAXOSMITHKLINE INTELLECTUAL PROPERTY DEVELOPMENT LIMITED, priority 2016, dated 2021).

Test system: NRF2 (NQO1 activity as marker for NRF2 activation), BEAS-2B cells
Assay: BEAS-2B NQO1 MTT Assay
Assay type: cell-based
Conditions: Homo sapiens, EC50 of NQO1 specific activity induction, 48 hours incubation, read-out: EC50
Outline: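 As a marker of NRF2 activation, NQO1 specific activity was read from the rate of absorbance change at 570 nm in MTT cocktail over 30 minutes. Lysates came from BEAS-2B cells treated for 48 hours at 37° C, and EC50 was derived by 3-parameter fitting.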

Which EC50 does the source give for `CC[C@@H]1CN(Cc2cc([C@H](CC(=O)Nc3cnc(OC)nc3)c3ccc4c(nnn4CC)c3C)ccc2C)S(=O)(=O)c2cccnc2O1` [Example 123, (S)-3-(3-(((R)-4-Ethyl-1,1-dioxido-3,4-dihydro-2H-pyrido[2,3-b][1,4,5]oxathiazepin-2-yl)methyl)-4-methylphenyl)-3-(1-ethyl-4-methyl-1H-benzo[d][1,2,3]triazol-5-yl)-N-(2-methoxypyrimidin-5-yl)propanamide] here?
The EC50 was 10 to 100 nM.

`CCOCCOc1ncc(NC(=O)C(C)(C)[C@@H](c2ccc(C)c(CN3C[C@@H](CC)Oc4ncccc4S3(=O)=O)c2)c2ccc3c(nnn3CC)c2C)cn1` [Example 124, (S)—N-(2-(2-Ethoxyethoxy)pyrimidin-5-yl)-3-(3-(((R)-4-ethyl-1,1-dioxido-3,4-dihydro-2H-pyrido[2,3-b][1,4,5]oxathiazepin-2-yl)methyl)-4-methylphenyl)-3-(1-ethyl-4-methyl-1H-benzo[d][1,2,3]triazol-5-yl)-2,2-dimethylpropanamide] was tested. Which EC50 did it give?
The EC50 was 1 to 10 nM.

With `CC[C@@H]1CN(Cc2cc([C@H](CC(=O)Nc3cnc(N4CCCCC4)nc3)c3ccc4c(nnn4CC)c3C)ccc2C)S(=O)(=O)c2cccnc2O1` [Example 125, (S)-3-(3-(((R)-4-Ethyl-1,1-dioxido-3,4-dihydro-2H-pyrido[2,3-b][1,4,5]oxathiazepin-2-yl)methyl)-4-methylphenyl)-3-(1-ethyl-4-methyl-1H-benzo[d][1,2,3]triazol-5-yl)-N-(2-(piperidin-1-yl)pyrimidin-5-yl)propanamide] as the molecule, how does the EC50 read?
The EC50 was 10 to 100 nM.

`CC[C@@H]1CN(Cc2cc([C@H](CC(=O)Nc3cnc(NC)nc3)c3ccc4c(nnn4CC)c3C)ccc2C)S(=O)(=O)c2cccnc2O1` [Example 126, (S)-3-(3-(((R)-4-Ethyl-1,1-dioxido-3,4-dihydro-2H-pyrido[2,3-b][1,4,5]oxathiazepin-2-yl)methyl)-4-methylphenyl)-3-(1-ethyl-4-methyl-1H-benzo[d][1,2,3]triazol-5-yl)-N-(2-(methylamino)pyrimidin-5-yl)propanamide] was tested. Which EC50 did it give?
The EC50 was 100 to 1000 nM.

For `CC[C@@H]1CN(Cc2cc([C@H](CC(=O)Nc3cnc(NC(CO)CO)nc3)c3ccc4c(nnn4CC)c3C)ccc2C)S(=O)(=O)c2cccnc2O1` [Example 127, (S)—N-(2-((1,3-Dihydroxypropan-2-yl)amino)pyrimidin-5-yl)-3-(3-(((R)-4-ethyl-1,1-dioxido-3,4-dihydro-2H-pyrido[2,3-b][1,4,5]oxathiazepin-2-yl)methyl)-4-methylphenyl)-3-(1-ethyl-4-methyl-1H-benzo[d][1,2,3]triazol-5-yl)propanamide], which EC50 is on record?
Its EC50 is 1000 to 10000 nM.

Which EC50 does the source give for `CC[C@@H]1CN(Cc2cc([C@@H](c3ccc4c(nnn4CC)c3C)C(C)(C)C(=O)Nc3cnc(NC(CO)CO)nc3)ccc2C)S(=O)(=O)c2cccnc2O1` [Example 128, (S)-N-(2-((1,3-Dihydroxypropan-2-yl)amino)pyrimidin-5-yl)-3-(3-(((R)-4-ethyl-1,1-dioxido-3,4-dihydro-2H-pyrido[2,3-b][1,4,5]oxathiazepin-2-yl)methyl)-4-methylphenyl)-3-(1-ethyl-4-methyl-1H-benzo[d][1,2,3]triazol-5-yl)-2,2-dimethylpropanamide] here?
The EC50 was 100 to 1000 nM.

Which EC50 does the source give for `CC[C@@H]1CN(Cc2cc([C@@H](c3ccc4c(nnn4CC)c3C)C(C)(C)C(=O)Nc3cnc(OCC(N)CO)nc3)ccc2C)S(=O)(=O)c2cccnc2O1` (stereo partly drawn) [Example 129, (3S)-N-(2-(2-Amino-3-hydroxypropoxy)pyri-midin-5-yl)-3-(3-(((R)-4-ethyl-1,1-dioxido-3,4-dihydro-2H-pyrido[2,3-b][1,4,5]oxathiazepin-2-yl)methyl)-4-methylphenyl)-3-(1-ethyl-4-methyl-1H-benzo[d][1,2,3]triazol-5-yl)-2,2-dimethylpropanamide] here?
The EC50 was 100 to 1000 nM.

For `CC[C@@H]1CN(Cc2cc([C@@H](c3ccc4c(nnn4CC)c3C)C(C)(C)C(=O)Nc3cnc(N(C)C)nc3)ccc2C)S(=O)(=O)c2cccnc2O1` [Example 130, (S)-N-(2-(Dimethylamino)pyri-midin-5-yl)-3-(3-(((R)-4-ethyl-1,1-dioxido-3,4-dihydro-2H-pyrido[2,3-b][1,4,5]oxathiazepin-2-yl)methyl)-4-methylphenyl)-3-(1-ethyl-4-methyl-1H-benzo[d][1,2,3]triazol-5-yl)-2,2-dimethylpropanamide], which EC50 is on record?
The EC50 was 1 to 10 nM.

How did the EC50 turn out when `CC[C@@H]1CN(Cc2cc([C@@H](c3ccc4c(nnn4CC)c3C)C(C)(C)C(=O)Nc3cnc(S(C)(=O)=O)nc3)ccc2C)S(=O)(=O)c2cccnc2O1` [Example 131, (S)-3-(3-(((R)-4-Ethyl-1,1-dioxido-3,4-dihydro-2H-pyrido[2,3-b][1,4,5]oxathiazepin-2-yl)methyl)-4-methylphenyl)-3-(1-ethyl-4-methyl-1H-benzo[d][1,2,3]triazol-5-yl)-2,2-dimethyl-N-(2-(methylsulfonyl)pyrimidin-5-yl)propanamide] was run?
The EC50 was 10 to 100 nM.

`CC[C@@H]1CN(Cc2cc([C@@H](c3ccc4c(nnn4CC)c3C)C(C)(C)NC(C)=O)ccc2C)S(=O)(=O)c2ccccc2O1` [Example 132, N—((S)-1-(3-(((R)-4-Ethyl-1,1-dioxido-3,4-dihydro-2H-benzo[b][1,4,5]oxathiazepin-2-yl)methyl)-4-methylphenyl)-1-(1-ethyl-4-methyl-1H-benzo[d][1,2,3]triazol-5-yl)-2-methylpropan-2-yl)acetamide] was tested. Which EC50 did it give?
Its EC50 is 10 to 100 nM.

`CC[C@@H]1CN(Cc2cc([C@@H](c3ccc4c(nnn4CC)c3C)C(C)(C)NC(=O)CCCNC(C)=O)ccc2C)S(=O)(=O)c2ccccc2O1` [Example 133, 4-Acetamido-N-((S)-1-(3-(((R)-4-ethyl-1,1-dioxido-3,4-dihydro-2H-benzo[b][1,4,5]oxathiazepin-2-yl)methyl)-4-methylphenyl)-1-(1-ethyl-4-methyl-1H-benzo[d][1,2,3]triazol-5-yl)-2-methylpropan-2-yl)butanamide] was tested. Which EC50 did it give?
The EC50 was 1000 to 10000 nM.

`CC[C@@H]1CN(Cc2cc([C@@H](c3ccc4c(nnn4CC)c3C)C(C)(C)NC(=O)C3CCOC3)ccc2C)S(=O)(=O)c2ccccc2O1` (stereo partly drawn) [Example 134, N-((S)-1-(3-(((R)-4-Ethyl-1,1-dioxido-3,4-dihydro-2H-benzo[b][1,4,5]oxathiazepin-2-yl)methyl)-4-methylphenyl)-1-(1-ethyl-4-methyl-1H-benzo[d][1,2,3]triazol-5-yl)-2-methylpropan-2-yl)tetrahydrofuran-3-carboxamide] was tested. Which EC50 did it give?
Its EC50 is 10 to 100 nM.

Which EC50 does the source give for `CC[C@@H]1CN(Cc2cc([C@@H](c3ccc4c(nnn4CC)c3C)C(C)(C)NC(=O)C3CCCOC3)ccc2C)S(=O)(=O)c2ccccc2O1` (stereo partly drawn) [Example 135, N-((S)-1-(3-(((R)-4-Ethyl-1,1-dioxido-3,4-dihydro-2H-benzo[b][1,4,5]oxathiazepin-2-yl)methyl)-4-methylphenyl)-1-(1-ethyl-4-methyl-1H-benzo[d][1,2,3]triazol-5-yl)-2-methylpropan-2-yl)tetrahydro-2H-pyran-3-carboxamide] here?
Its EC50 is 10 to 100 nM.

`CC[C@@H]1CN(Cc2cc([C@@H](c3ccc4c(nnn4CC)c3C)C(C)(C)NC(=O)c3ccco3)ccc2C)S(=O)(=O)c2ccccc2O1` [Example 136, N-((S)-1-(3-(((R)-4-Ethyl-1,1-dioxido-3,4-dihydro-2H-benzo[b][1,4,5]oxathiazepin-2-yl)methyl)-4-methylphenyl)-1-(1-ethyl-4-methyl-1H-benzo[d][1,2,3]triazol-5-yl)-2-methylpropan-2-yl)furan-2-carboxamide] was tested. Which EC50 did it give?
Its EC50 is 100 to 1000 nM.

For `CC[C@@H]1CN(Cc2cc([C@@H](c3ccc4c(nnn4CC)c3C)C(C)(C)NC(=O)c3ccoc3)ccc2C)S(=O)(=O)c2ccccc2O1` [Example 137, N-((S)-1-(3-(((R)-4-Ethyl-1,1-dioxido-3,4-dihydro-2H-benzo[b][1,4,5]oxathiazepin-2-yl)methyl)-4-methylphenyl)-1-(1-ethyl-4-methyl-1H-benzo[d][1,2,3]triazol-5-yl)-2-methylpropan-2-yl)furan-3-carboxamide], which EC50 is on record?
Its EC50 is 10 to 100 nM.

With `CC[C@@H]1CN(Cc2cc([C@@H](c3ccc4c(nnn4CC)c3C)C(C)(C)NC(=O)c3ccns3)ccc2C)S(=O)(=O)c2ccccc2O1` [Example 138, N-((S)-1-(3-(((R)-4-Ethyl-1,1-dioxido-3,4-dihydro-2H-benzo[b][1,4,5]oxathiazepin-2-yl)methyl)-4-methylphenyl)-1-(1-ethyl-4-methyl-1H-benzo[d][1,2,3]triazol-5-yl)-2-methylpropan-2-yl)isothiazole-5-carboxamide] as the molecule, how does the EC50 read?
The EC50 was 10 to 100 nM.

With `CC[C@@H]1CN(Cc2cc([C@@H](c3ccc4c(nnn4CC)c3C)C(C)(C)NC(=O)c3ccc(=O)n(C)c3)ccc2C)S(=O)(=O)c2ccccc2O1` [Example 139, N-((S)-1-(3-(((R)-4-Ethyl-1,1-dioxido-3,4-dihydro-2H-benzo[b][1,4,5]oxathiazepin-2-yl)methyl)-4-methylphenyl)-1-(1-ethyl-4-methyl-1H-benzo[d][1,2,3]triazol-5-yl)-2-methylpropan-2-yl)-1-methyl-6-oxo-1,6-dihydropyridine-3-carboxamide] as the molecule, how does the EC50 read?
The EC50 was 10 to 100 nM.

`CC[C@@H]1CN(Cc2cc([C@@H](c3ccc4c(nnn4CC)c3C)C(C)(C)NC(=O)c3cccn(C)c3=O)ccc2C)S(=O)(=O)c2ccccc2O1` [Example 140, N-((S)-1-(3-(((R)-4-Ethyl-1,1-dioxido-3,4-dihydro-2H-benzo[b][1,4,5]oxathiazepin-2-yl)methyl)-4-methylphenyl)-1-(1-ethyl-4-methyl-1H-benzo[d][1,2,3]triazol-5-yl)-2-methylpropan-2-yl)-1-methyl-2-oxo-1,2-dihydropyridine-3-carboxamide] was tested. Which EC50 did it give?
The EC50 was 10 to 100 nM.

`CC[C@@H]1CN(Cc2cc([C@@H](c3ccc4c(nnn4CC)c3C)C(C)(C)NC(=O)c3ccn(C)c(=O)c3)ccc2C)S(=O)(=O)c2ccccc2O1` [Example 141, N-((S)-1-(3-(((R)-4-Ethyl-1,1-dioxido-3,4-dihydro-2H-benzo[b][1,4,5]oxathiazepin-2-yl)methyl)-4-methylphenyl)-1-(1-ethyl-4-methyl-1H-benzo[d][1,2,3]triazol-5-yl)-2-methylpropan-2-yl)-1-methyl-2-oxo-1,2-dihydropyridine-4-carboxamide] was tested. Which EC50 did it give?
The EC50 was 10 to 100 nM.
